Like-named read-outs stand apart in the source and are kept apart here.

The source of these data is patent US5763480A, “Inhibitors of cell-medicated disorders” (priority 1994, dated 1998).

One series deals with cellular proton pump. In words: Blocking of cellular proton pump by metal-chelate complexes / stopping of the block by chelating agents. The following applies: for blocking of the cellular proton pump in combination with Tl or In: chelating agent combined with Tl or In.
In series [1] the test system is bone resorption. The following applies: cited from earlier work.
For series [2], the system named is proton pump of the osteoclast ruffled membrane vesicles. The class given is biochemical. As to conditions: read-out: 50% effective concentration, inhibition of vesicle acidification, FIG. 3. From the text: The effect of the metal-EDTA complexes on the proton pump of isolated osteoclast ruffled membrane vesicles was studied. For the study, the isolation, preparation and assay of the acidifying ruffled membrane vesicles were accomplished according to the procedures of Blair et al., J. Cell. Biochem., 48, 401-410 (1992).
The y-axis indicates the acidification by the membranes in relation to the molar concentration of the test composition, as indicated on the x-axis.

Series [3] is described as follows: Solubility of Tl and In EDTA complexes versus halide salts in physiological saline. The class given is physicochemical. The following applies: physiological saline / physiological solvents. An excerpt: The pH of the resulting solutions was then raised to pH 7.0 and filtered to achieve sterility. […] The solubility characteristics of these Tl and In complexes were compared to the solubility characteristics of the respective halogen salts.

The test system of series [4] is bone resorption. The following applies: in vivo; cited from earlier work.
The test system of a further series is osteoclasts. The experiment in a line: Inhibition of osteoclast-mediated bone resorption in vitro (release of radiolabelled bone). Type of series: cell-based, laying hens. As to conditions: read-out: 50% effective concentration, inhibition of bone resorption by osteoclasts in culture, FIG. 2, up to six days, labelled bone, 10,000 cells per well. The procedure: Osteoclasts were isolated from calcium-deprived, laying hens, and metabolically radiolabelled bone was prepared therefrom (Blair et al., J. Cell Biol., 102, 1164-1172 (1986)). These osteoclasts were cultured in 24 well dishes at 10,000 cells per well, to which were added labelled bone and test compounds. The culture supernatants were assayed for released radioactivity for up to six days after the addition of the labelled bone.
The y-axis indicates the percentage of the total radiolabelled bone that was released by osteoclast activity to the culture supernatant in response to varying the molar concentration (x-axis) of the various test compositions. […] The 50% effective concentrations of suramin and gallium nitrate were 700 nM and 2000 nM, respectively.

Series [5] deals with chloride channel and proton pump of ruffled membrane vesicles. In words: Valinomycin reversal test distinguishing chloride channel and proton pump in ruffled membrane vesicles. The following applies: control measurement, 1 micromolar valinomycin. The class given is biochemical. The procedure: Because both the chloride channel and the proton pump are present in the ruffled membrane vesicles, the inhibition of acidification that was observed was possibly due to effects on either or both of these transporters. The effects of these two transporters were distinguished in other experiments by noting and using the differential effects of valinomycin on the chloride channel and proton pump in the presence of 120 mM K^+. This drug relieves the build-up of membrane potential yet permits proton transport.

Series [6] relates to osteoclast-mediated bone resorption. The experiment in a line: PTH stimulated bone resorption of rats in vivo, serum calcium (hypercalcemia model). As to the method: The ability of the metal-EDTA complexes to inhibit osteoclast-mediated bone resorption was tested on two groups of experimental rats treated to provide a hypercalcemia model (according to the procedures of Jaeger et al., Am. J. Physiol., 252, E790-E798 (1987)) as compared to two groups of untreated control rats. Experimental rats were surgically parathyroidectomized, and the effectiveness of the parathyroidectomy was gauged by determining the subject rats' serum calcium levels 72 hours post-surgery. A fall in calcium observed at that time reflected the decrease of bone resorption resulting from the removal of the parathyroid glands and the consequent decrease in circulating parathyroid hormone (PTH), a regulator of extra-cellular Ca^++ concentration. […] Serum calcium levels were determined after a 24-hour fast on the third day after the last drug administration and again two weeks later.
All the animals in this study underwent the same two surgical procedures and received PTH via the implanted osmotic pump starting on day 3. […] After the two weeks were complete, serum calcium was determined again and compared to the earlier values and the controls. […]

For `O=C(O)CN(CC(=O)O)[C@@H]1CCCC[C@H]1N(CC(=O)O)CC(=O)O` (relative stereo) [CDTA, trans-1,2-diaminocyclohexane-N,N,N',N'-tetraacetic acid], the “stopping of the proton pump-blocking effect by chelating agent” value (“stopping … by chelating agent” below) in the series on cellular proton pump (In(III) and Tl(III)) is “stops the cellular proton pump-blocking effect”. Further, the “blocking of the cellular proton pump in combination with Tl or In” value (shortened to “blocking of the cellular proton pump”) in the series with cellular proton pump was “ineffective”. As to `[Al]` [Aluminum], in the series on bone resorption [1] (gallium nitrate in humans, aluminum in accidental poisoning), the “effect on bone calcium loss / bone resorption” value is on record as “inhibit bone resorption”. Take `O=C(O)CN(CCN(CC(=O)O)CC(=O)O)CCN(CC(=O)O)CC(=O)O` [DPTA, diethylenetriaminepentaacetic acid]: in the series with cellular proton pump (In(III) and Tl(III)), the “stopping … by chelating agent” value is recorded as “stops the cellular proton pump-blocking effect”. In addition, the “blocking of the cellular proton pump” value in the series with cellular proton pump is recorded as “ineffective”. Take `O=C(O)CN(CCN(CC(=O)O)CC(=O)O)CC(=O)O` [EDTA, ethylenediaminetetraacetic acid]: the “suitability for stopping the effect” value in the series on cellular proton pump (metal is Tl or In) is reported as “not a suitable chelating agent for stopping the effect”. As for `O=C(O)CN(CCOCCOCCN(CC(=O)O)CC(=O)O)CC(=O)O` [EGTA, ethylene glycol bis (o-aminoethyl ether) N,N,N',N'-tetraacetic acid], in the series on cellular proton pump (Ga(III)), the “stopping … by chelating agent” value is “stops the cellular proton pump-blocking effect”. Further, the “blocking of the cellular proton pump” value with cellular proton pump is on record as “ineffective”. With `[Ga]` [Ga, gallium], the EC50 in series [2] was 300 µM. Turning to `[Tl]` [Tl, thallium], the EC50 in series [2] turned out to be 30 µM. Regarding `[Cl][Tl]([Cl])[Cl]` [TlCl3], in series [3], the “solubility (in words)” value is listed as “could not be prepared”. Regarding `O=P(O)(O)C(Cl)(Cl)P(=O)(O)O` [clodronate], in the series on bone resorption [4], the adverse effects entry is given as “development of acute leukemia”; the “efficacy on bone resorption and bone disease” value was “effective not only in Paget's disease, but also in the treatment of hypercalcemia and osteolytic bone disease”. As to `CC(O)(P(=O)(O)O)P(=O)(O)O` [etidronate], in the series on bone resorption [4], the adverse effects result was “impaired mineralization and thus, paradoxically, increased bone fragility”; the “efficacy on bone resorption and bone disease” value was “effective inhibitor of bone resorption”. Turning to `O=[N+]([O-])[O-].O=[N+]([O-])[O-].O=[N+]([O-])[O-].[Ga+3]` [gallium nitrate], the EC50 in the series on osteoclasts stood at 2000 nM. Also, the adverse effects entry in the series with bone resorption [1] (gallium compound treatment) is “anemia, nausea and vomiting, and renal toxicity”.

On to `Cc1ccc(C(=O)Nc2ccc(S(=O)(=O)O)c3cc(S(=O)(=O)O)cc(S(=O)(=O)O)c23)cc1NC(=O)c1cccc(NC(=O)Nc2cccc(C(=O)Nc3cc(C(=O)Nc4ccc(S(=O)(=O)O)c5cc(S(=O)(=O)O)cc(S(=O)(=O)O)c45)ccc3C)c2)c1` [suramin], for which the EC50 in the series with osteoclasts (Osteoclast, 144 h) turned out to be 700 nM. For `CC(C)[C@@H]1NC(=O)[C@H](C)OC(=O)[C@@H](C(C)C)NC(=O)[C@@H](C(C)C)OC(=O)[C@H](C(C)C)NC(=O)[C@H](C)OC(=O)[C@@H](C(C)C)NC(=O)[C@@H](C(C)C)OC(=O)[C@H](C(C)C)NC(=O)[C@H](C)OC(=O)[C@@H](C(C)C)NC(=O)[C@@H](C(C)C)OC1=O` [valinomycin], the “recovery of acidification after chloride channel inhibition” value in series [5] is recorded as “recovered when 1 micromolar valinomycin was added”.

For the molecule “PTH: synthetic PTH (BPTH 1-34 (i.e., rat peptide 1-34), purchased from Bachem California) (AVSEIQLMHNLGKHLASVERMQWLRKKLQDVHNF; Parathyroid hormone; UniProt P04089 32-65, looked up, fragment)”, in series [6] (PTH without Tl-EDTA or In-EDTA, with or without parathyroid gland), the “serum calcium (in words)” value was “elevated calcium concentrations”. Further, in series [6] (constant PTH by subcutaneous osmotic pump, parathyroidectomized rats), the “serum calcium level relative to pretreatment levels” value is 150%.
